Experiment: xn = mol fraction of the nth substance listed
Conditions: 298.15 K, 101 kPa, Liquid; for viscosity: Capillary tube (Ostwald / Ubbelohde) method; for speed of sound: Sing-around technique in a fixed-path interferometer

COCC(C)OCC(C)OC (stereo not drawn) [2-methoxy-1-(2-methoxy-1-methylethoxy)propane] + CO
Conditions | mass density [kg/m3] | speed of sound [m/s] | viscosity [mPa·s]
x1 = 0.0146 | – | – | 0.567
x1 = 0.023 | 799.44 | 1116.2 | –
x1 = 0.0467 | – | – | 0.6092
x1 = 0.0705 | 820.052 | 1138.4 | –
x1 = 0.0738 | – | – | 0.644
x1 = 0.1106 | – | – | 0.6831
x1 = 0.1312 | 838.725 | 1158.2 | –
x1 = 0.1422 | – | – | 0.7112
x1 = 0.1632 | 846.233 | 1166.2 | –
x1 = 0.1646 | – | – | 0.7327
x1 = 0.1725 | – | – | 0.7378
x1 = 0.1988 | – | – | 0.7576
x1 = 0.2058 | – | – | 0.7648
x1 = 0.2094 | 855.089 | 1175.4 | –
x1 = 0.2514 | 861.6 | 1182 | –
x1 = 0.2621 | – | – | 0.8031
x1 = 0.3018 | 867.961 | 1188.1 | –
x1 = 0.3128 | – | – | 0.8321
x1 = 0.3583 | – | – | 0.8527
x1 = 0.3598 | 873.908 | 1193.9 | –
x1 = 0.4 | – | – | 0.871
x1 = 0.4036 | 877.603 | 1197.3 | –
x1 = 0.4549 | 881.296 | 1200.3 | 0.8941
x1 = 0.5022 | 884.189 | 1202.6 | –
x1 = 0.5123 | – | – | 0.9106
x1 = 0.5449 | 886.449 | 1204.3 | –
x1 = 0.5474 | – | – | 0.9206
x1 = 0.6169 | 889.615 | 1206.2 | –
x1 = 0.6261 | – | – | 0.9387
x1 = 0.6494 | 890.83 | 1206.8 | –
x1 = 0.6802 | – | – | 0.9504
x1 = 0.7083 | 892.78 | 1207.7 | –
x1 = 0.7319 | – | – | 0.9598
x1 = 0.7557 | – | – | 0.9634
x1 = 0.756 | 894.087 | 1207.9 | –
x1 = 0.7919 | – | – | 0.9682
x1 = 0.8114 | 895.425 | 1207.8 | –
x1 = 0.8537 | 896.298 | 1207.6 | –
x1 = 0.8565 | – | – | 0.9775
x1 = 0.9047 | 897.217 | 1207 | –
x1 = 0.9185 | – | – | 0.9855
x1 = 0.9327 | – | – | 0.9862
x1 = 0.9364 | 897.708 | 1206.2 | –
x1 = 0.9511 | 897.931 | 1206.2 | –
x1 = 0.9572 | – | – | 0.9881
x1 = 0.974 | – | – | 0.9898

Reference: the NIST ThermoML archive (doi:10.1016/j.jct.2008.01.008)
